From patent publication US20040102362A1, “Protocol for paracentesis” (priority 2000, published 2004)
Positions of bridges follow the written chain, without caps; N, C: chain ends. Residues, ends and D or L forms follow the SMILES beside them.

Test system: cirrhotic patients with tense ascites
Conditions: human, in vivo
Method: Patient selection criteria: 24 clinically stable cirrhotic patients with tense ascites in need of therapeutic paracentesis were recruited to the study.
Treatment: Both groups received therapeutic paracentesis according to the usual protocol of the study centre. […] Plasma renin and aldosterone levels were measured as markers of blood volume. Certain other parameters were determined as secondary criteria for successful treatment.

Compound: NCCCC[C@H](NC(=O)[C@@H]1CCCN1C(=O)[C@@H]1CSSC[C@H](NC(=O)CNC(=O)CNC(=O)CN)C(=O)N[C@@H](Cc2ccc(O)cc2)C(=O)N[C@@H](Cc2ccccc2)C(=O)N[C@@H](CCC(N)=O)C(=O)N[C@@H](CC(N)=O)C(=O)N1)C(=O)NCC(N)=O [Terlipressin] (H-GGGCYFQNCPKG-NH2; disulfide 4-9)
- Creatininaemia: 72 ± 8
- Natraemia: 133 ± 1 mmol/L
